From ChEMBL document CHEMBL4028820, “Novel bioactive molecules from Lentzea violacea strain AS 08 using one strain-many compounds (OSMAC) approach” (Bioorg Med Chem Lett, 2017)
In brackets after ≈: the same amount, converted by molar mass.

Assays:
HepG2 = assay: Antiproliferative activity against human HepG2 cells after 48 hrs by MTT assay; assay type: functional, cell-based; conditions: HepG2, 48 h
Pseudomonas aeruginosa = assay: Antibacterial activity against Pseudomonas aeruginosa ATCC 10145 after 20 to 24 hrs by broth microdilution method; assay type: functional
T47D = assay: Antiproliferative activity against human T47D cells after 48 hrs by MTT assay; assay type: functional, cell-based
Staphylococcus aureus = assay: Antibacterial activity against Staphylococcus aureus ATCC 25923 after 20 to 24 hrs by broth microdilution method; assay type: functional
Escherichia coli = assay: Antibacterial activity against Escherichia coli ATCC 10536 after 20 to 24 hrs by broth microdilution method; assay type: functional
HCT-116 = assay: Antiproliferative activity against human HCT116 cells after 48 hrs by MTT assay; assay type: functional, cell-based; conditions: HCT-116, 48 h
Enterococcus faecalis = assay: Antibacterial activity against Enterococcus faecalis ATCC 51299 after 20 to 24 hrs by broth microdilution method; assay type: functional
Bacillus subtilis = assay: Antibacterial activity against Bacillus subtilis ATCC 11774 after 20 to 24 hrs by broth microdilution method; assay type: functional
[1] = tested on: Staphylococcus epidermidis; assay: Antibacterial activity against Staphylococcus epidermidis ATCC 12228 after 20 to 24 hrs by broth microdilution method; assay type: functional
Micrococcus luteus = assay: Antibacterial activity against Micrococcus luteus ATCC 10240 after 20 to 24 hrs by broth microdilution method; assay type: functional
A549 = assay: Antiproliferative activity against human A549 cells after 48 hrs by MTT assay; assay type: functional, cell-based; conditions: A549, 48 h
Klebsiella pneumoniae = assay: Antibacterial activity against Klebsiella pneumoniae ATCC BAA-2146 after 20 to 24 hrs by broth microdilution method; assay type: functional

Q: Which IC50 (HepG2) does the source give for `CCCCOC(=O)c1ccccc1C(=O)OCC(C)C` here?
A: The IC50 was 53.3 µM.

Q: And the MIC (Pseudomonas aeruginosa)?
A: Its MIC is greater than 128 µg/mL.

Q: What about the IC50 (T47D) of the same compound?
A: The IC50 was 48.7 µM.

Q: And the MIC (Staphylococcus aureus)?
A: Its MIC is greater than 128 µg/mL.

Q: And the MIC (Escherichia coli)?
A: The MIC was greater than 128 µg/mL.

Q: And the IC50 (HCT-116)?
A: The IC50 was 36.1 µM.

Q: What about the MIC (Enterococcus faecalis) of the same compound?
A: Its MIC is greater than 128 µg/mL.

Q: And the MIC (Bacillus subtilis)?
A: The MIC was greater than 128 µg/mL.

Q: What about the MIC [1] of the same compound?
A: The MIC was greater than 128 µg/mL.

Q: What about the MIC (Micrococcus luteus) of the same compound?
A: The MIC was greater than 128 µg/mL.

Q: And the IC50 (A549)?
A: Its IC50 is 38 µM.

Q: What about the MIC (Klebsiella pneumoniae) of the same compound?
A: The MIC was greater than 128 µg/mL.

Q: For `O=c1[nH]cc(F)c(=O)[nH]1` [FLUOROURACIL], which IC50 (HepG2) is on record?
A: The IC50 was 20.1 µM.

Q: And the IC50 (T47D)?
A: Its IC50 is 12.1 µM.

Q: And the IC50 (HCT-116)?
A: Its IC50 is 26.2 µM.

Q: What about the IC50 (A549) of the same compound?
A: The IC50 was 15.1 µM.

Q: `NCC[C@H](O)C(=O)N[C@@H]1C[C@H](N)[C@@H](O[C@H]2O[C@H](CN)[C@@H](O)[C@H](O)[C@H]2O)[C@H](O)[C@H]1O[C@H]1O[C@H](CO)[C@@H](O)[C@H](N)[C@H]1O` [AMIKACIN] was tested. Which MIC (Pseudomonas aeruginosa) did it give?
A: The MIC was 2.5 µg/mL (≈ 4.27 µM).

Q: What about the MIC (Staphylococcus aureus) of the same compound?
A: The MIC was 2.5 µg/mL (≈ 4.27 µM).

Q: What about the MIC (Escherichia coli) of the same compound?
A: Its MIC is 0.312 to 0.625 µg/mL (≈ 0.533 to 1.07 µM).

Q: What about the MIC (Enterococcus faecalis) of the same compound?
A: The MIC was 0.39 µg/mL (≈ 0.666 µM).

Q: And the MIC (Bacillus subtilis)?
A: Its MIC is 0.625 µg/mL (≈ 1.07 µM).

Q: And the MIC [1]?
A: The MIC was 2.5 µg/mL (≈ 4.27 µM).

Q: And the MIC (Micrococcus luteus)?
A: Its MIC is 0.39 µg/mL (≈ 0.666 µM).

Q: And the MIC (Klebsiella pneumoniae)?
A: The MIC was 5 µg/mL (≈ 8.54 µM).

Q: `CC1=C2C(O)C(C(C)CO)CCC2(C)C=CC1=O` (stereo unspecified) was tested. Which IC50 (HepG2) did it give?
A: Its IC50 is 38.8 µM.

Q: What about the MIC (Pseudomonas aeruginosa) of the same compound?
A: The MIC was 64 µg/mL (≈ 256 µM).

Q: What about the IC50 (T47D) of the same compound?
A: Its IC50 is 26.7 µM.

Q: And the MIC (Staphylococcus aureus)?
A: Its MIC is 64 µg/mL (≈ 256 µM).

Q: What about the MIC (Escherichia coli) of the same compound?
A: Its MIC is 32 µg/mL (≈ 128 µM).

Q: And the IC50 (HCT-116)?
A: The IC50 was 19.2 µM.

Q: And the MIC (Enterococcus faecalis)?
A: Its MIC is 128 µg/mL (≈ 511 µM).

Q: What about the MIC (Bacillus subtilis) of the same compound?
A: The MIC was 128 µg/mL (≈ 511 µM).

Q: What about the MIC [1] of the same compound?
A: The MIC was greater than 128 µg/mL.

Q: What about the MIC (Micrococcus luteus) of the same compound?
A: The MIC was 128 µg/mL (≈ 511 µM).

Q: And the IC50 (A549)?
A: The IC50 was 22.3 µM.

Q: What about the MIC (Klebsiella pneumoniae) of the same compound?
A: Its MIC is 32 µg/mL (≈ 128 µM).

Q: What does the source list for `CC(C)CC[C@H](O)[C@@H]1C(=O)OC[C@H]1CO`?
A: IC50 (HepG2): > 100 µM; MIC (Pseudomonas aeruginosa): 32 µg/mL (≈ 148 µM); IC50 (T47D): > 100 µM; MIC (Staphylococcus aureus): 64 µg/mL (≈ 296 µM); MIC (Escherichia coli): 32 µg/mL (≈ 148 µM); IC50 (HCT-116): 62.3 µM; MIC (Enterococcus faecalis): 128 µg/mL (≈ 592 µM); MIC (Bacillus subtilis): 128 µg/mL (≈ 592 µM); MIC [1]: 128 µg/mL (≈ 592 µM); MIC (Micrococcus luteus): 128 µg/mL (≈ 592 µM); IC50 (A549): 71.5 µM; MIC (Klebsiella pneumoniae): 64 µg/mL (≈ 296 µM)

Q: What does the source list for `C[C@H]1COc2c(N3CCN(C)CC3)c(F)cc3c(=O)c(C(=O)O)cn1c23.C[C@H]1COc2c(N3CCN(C)CC3)c(F)cc3c(=O)c(C(=O)O)cn1c23.O` [LEVOFLOXACIN]?
A: MIC (Pseudomonas aeruginosa): 0.312 to 0.625 µg/mL; MIC (Staphylococcus aureus): 0.078 to 0.156 µg/mL; MIC (Escherichia coli): 0.078 µg/mL; MIC (Enterococcus faecalis): 0.156 µg/mL; MIC (Bacillus subtilis): 0.39 µg/mL; MIC [1]: 0.039 to 0.078 µg/mL; MIC (Micrococcus luteus): 0.078 µg/mL; MIC (Klebsiella pneumoniae): 2.5 to 5 µg/mL
